Reference: patent US20160002247A1, “8-SUBSTITUTED IMIDAZOPYRIMIDINONE DERIVATIVE HAVING AUTOTAXIN INHIBITORY ACTIVITY” (THE UNIVERSITY OF TOKYO, priority 2013, published 2016)

biological target: T1, Human autotaxin enzyme (Homo sapiens, UniProt Q13822); assay: Evaluation of autotaxin inhibitor, Method C (Test Example 3): 18:0 Lyso PC, choline assay, Resorufin fluorescence; format: biochemical; conditions: Assay Method C (Test Example 3), human autotaxin, 18:0 Lyso PC substrate; read-out: Inhibitory Activity (autotaxin enzyme inhibitory activity, IC50 class)
T1 construct: purchased R&D System
Summary of the method: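 Choline-coupled fluorescence readout (20 min, resorufin at 531/598 nm) followed a 2 h room-temperature reaction of human autotaxin with 18:0 Lyso PC substrate (added as 200 μM solution) in pH 7.5 Tris buffer containing MgCl2 and Triton X-100. Percent inhibition scaled to no-compound (0%) and no-enzyme (100%) wells and plotted versus concentration.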

SMILES	IC50 [nM]
N#CCCCCn1c(N2CCC(C(=O)O)CC2)cc(=O)n2cc(-c3ccc(C#N)cc3)nc12 [Compound 284]	10 to 100
CCCCCn1c(N(Cc2ccc(C(=O)OC)cc2)C(C)=O)cc(=O)n2cc(-c3ccc(Cl)cc3)nc12 [Compound 566]	10 to 100
CCn1c(N2C[C@H](O)C[C@H]2C(=O)N[C@@H](Cc2ccccc2)C(=O)O)cc(=O)n2cc(-c3ccc(Cl)cc3)nc12 [Compound 761]	100 to 1000
CCCCCn1c(-c2ccc(C(=O)OC)cc2)cc(=O)n2cc(-c3ccc(Cl)cc3)nc12 [Compound 529]	100 to 1000
CCCCCn1c(-c2ccc(C(=O)Nc3ccccc3)cc2)cc(=O)n2cc(-c3ccc(Cl)cc3)nc12 [Compound 469]	10 to 100
CCCCCn1c(-c2cnc(C(=O)O)nc2)cc(=O)n2cc(-c3ccc(Cl)cc3)nc12 [Compound 533]	< 10
Cn1c(N2CCC[C@H]2C(=O)N[C@@H](CCc2ccccc2)C(=O)O)cc(=O)n2cc(-c3ccc(Cl)cc3)nc12 [Compound 769]	10 to 100
CCCCCn1c(-c2ccc(C(=O)NCCc3ccccn3)cc2)cc(=O)n2cc(-c3ccc(Cl)cc3)nc12 [Compound 508]	10 to 100
CCCCCn1c(-c2ccc(C(=O)N(C)CCO)cc2)cc(=O)n2cc(-c3ccc(Cl)cc3)nc12 [Compound 476]	10 to 100
CN(C)CCNC(=O)c1ccc(-c2cc(=O)n3cc(-c4ccc(Cl)cc4)nc3n2CCCCC#N)cc1 [Compound 378]	10 to 100
CCCCCn1c(N2CCCC2Cc2ccccc2)cc(=O)n2cc(-c3ccc(Cl)cc3)nc12 (stereo not shown) [Compound 320]	100 to 1000
CCCCCn1c(N2CCC[C@H]2C(=O)N[C@H](C(=O)O)C(c2ccccc2)c2ccccc2)cc(=O)n2cc(-c3ccc(Cl)cc3)nc12 [Compound 727]	100 to 1000
CCCCCn1c(-c2ccc(C(=O)NCCc3c[nH]cn3)cc2)cc(=O)n2cc(-c3ccc(Cl)cc3)nc12 [Compound 523]	10 to 100
CCCCCn1c(OCC2CCCN2C(=O)OC(C)(C)C)cc(=O)n2cc(-c3ccc(Cl)cc3)nc12 (stereo not shown) [Compound 554]	100 to 1000
CCCCCn1c(N2CC(C)CC(C)C2)cc(=O)n2cc(-c3ccc(Cl)cc3)nc12 (stereo not shown) [Compound 303]	> 1000
CCCCCn1c(C2=CCC(C(=O)O)CC2)cc(=O)n2cc(-c3ccc(Cl)cc3)nc12 (stereo not shown) [Compound 557]	10 to 100
CC(C)(NC(=O)[C@@H]1CCCN1c1cc(=O)n2cc(-c3ccc(Cl)cc3)nc2n1Cc1ccccc1)C(=O)O [Compound 747]	10 to 100
CCCCCn1c(N2C[C@@H](O)C[C@H]2C(=O)N[C@H](C(=O)O)C(C)(C)C)cc(=O)n2cc(-c3ccc(Cl)cc3)nc12 [Compound 778]	< 10
CCCCCn1c(-c2cnc(N)nc2)cc(=O)n2cc(-c3ccc(Cl)cc3)nc12 [Compound 459]	10 to 100
N#Cc1ccc(-c2cn3c(=O)cc(-c4ccc(C(N)=O)cc4)n(CCCC(F)(F)F)c3n2)cc1 [Compound 388]	10 to 100
CCCCCn1c(-c2ccc(C(=O)NCc3ccccn3)cc2)cc(=O)n2cc(-c3ccc(Cl)cc3)nc12 [Compound 507]	10 to 100
CCCCCn1c(-c2ccc(NS(C)(=O)=O)cc2)cc(=O)n2cc(-c3ccc(Cl)cc3)nc12 [Compound 401]	10 to 100
CCCCCn1c(N2CC=CC2)cc(=O)n2cc(-c3ccc(Cl)cc3)nc12 [Compound 309]	10 to 100
CCCCCn1c(O[C@H]2CC[C@H](C(C)(C)C(=O)O)CC2)cc(=O)n2cc(-c3ccc(Cl)cc3)nc12 [Compound 556]	10 to 100
CCCCCn1c(-c2ccc(CC)cc2)cc(=O)n2cc(-c3ccc(Cl)cc3)nc12 [Compound 435]	100 to 1000
CCCCCn1c(N(CCCC(=O)OCC)C(C)=O)cc(=O)n2cc(-c3ccc(Cl)cc3)nc12 [Compound 564]	10 to 100
CCCCCn1c(-c2cnc(CNC(=O)[C@H](O)CO)nc2)cc(=O)n2cc(-c3ccc(Cl)cc3)nc12 [Compound 531]	< 10
CCCCCn1c(-c2ccc(C(=O)N3CCS(=O)(=O)CC3)cc2)cc(=O)n2cc(-c3ccc(Cl)cc3)nc12 [Compound 492]	10 to 100
CCCCCn1c(N2CCC(F)(F)CC2)cc(=O)n2cc(-c3ccc(Cl)cc3)nc12 [Compound 310]	100 to 1000

Further lines, results first:

IC50 [nM]	SMILES
> 1000	Cn1c(N2CCC[C@H]2C(=O)NCC(=O)O)cc(=O)n2cc(-c3ccc(Cl)cc3)nc12 [Compound 768]
10 to 100	CCCCCn1c(N2CCC[C@H]2C(=O)NCCCN2CCN(C)CC2)cc(=O)n2cc(-c3ccc(Cl)cc3)nc12 [Compound 649]
10 to 100	CCCCCn1c(N2CCC[C@H]2C(=O)N[C@H]2CCNC2=O)cc(=O)n2cc(-c3ccc(Cl)cc3)nc12 [Compound 708]
< 10	CCCCCn1c(N2CCC[C@H]2C(=O)NC(C)(C)C(=O)O)cc(=O)n2cc(-c3ccc(Cl)cc3)nc12 [Compound 674]
< 10	CCCCCn1c(N2CCC[C@H]2C(=O)NC(C)CC(=O)O)cc(=O)n2cc(-c3ccc(Cl)cc3)nc12 (stereo partly shown) [Compound 356]
< 10	CCCCCn1c(N2CCC[C@H]2C(=O)N[C@@H](CC(C)C)C(=O)O)cc(=O)n2cc(-c3ccc(Cl)cc3)nc12 [Compound 733]
10 to 100	CCCCCn1c(N2CCCCC2CCO)cc(=O)n2cc(-c3ccc(Cl)cc3)nc12 (stereo not shown) [Compound 302]
10 to 100	CCCCCn1c(N2CCC[C@H]2C(=O)N(C)CC(=O)N(C)C)cc(=O)n2cc(-c3ccc(Cl)cc3)nc12 [Compound 703]
100 to 1000	CCCCCn1c(N2CCC[C@H]2C(=O)NCC(C)C(=O)OC)cc(=O)n2cc(-c3ccc(Cl)cc3)nc12 (stereo partly shown) [Compound 571]
100 to 1000	CCCCCn1c(N2CCC3(CC2)COC3)cc(=O)n2cc(-c3ccc(Cl)cc3)nc12 [Compound 716]
< 10	CCCCCn1c(N2CCC[C@H]2C(=O)N2CCO[C@@H](C(=O)O)C2)cc(=O)n2cc(-c3ccc(Cl)cc3)nc12 [Compound 681]
10 to 100	CCCCCn1c(N2CCNC[C@H]2C(=O)NCC(=O)O)cc(=O)n2cc(-c3ccc(Cl)cc3)nc12 [Compound 667]
< 10	CCCCCn1c(N2CCC[C@H]2C(=O)N[C@@H](CC(C)(C)C)C(=O)O)cc(=O)n2cc(-c3ccc(Cl)cc3)nc12 [Compound 730]
100 to 1000	CCCCCn1c(N2CCN(S(=O)(=O)N(C)C)CC2)cc(=O)n2cc(-c3ccc(Cl)cc3)nc12 [Compound 297]
< 10	CCCCCn1c(N2CCC[C@H]2C(=O)N[C@H](C(=O)O)c2ccccc2)cc(=O)n2cc(-c3ccc(Cl)cc3)nc12 [Compound 732]
< 10	CCCCCn1c(N2C[C@@H](F)C[C@H]2C(=O)NC(C)(C)CC(=O)O)cc(=O)n2cc(-c3ccc(Cl)cc3)nc12 [Compound 584]
10 to 100	CCCCCn1c(N2CC[C@@H](C(=O)O)C2)cc(=O)n2cc(-c3ccc(Cl)cc3)nc12 [Compound 669]

IC50 [nM]	SMILES
100 to 1000	CCCCCn1c(N2C[C@H](F)C[C@H]2C(=O)NC(C)(C)CC(=O)OCC)cc(=O)n2cc(-c3ccc(Cl)cc3)nc12 [Compound 595]
> 1000	CCCCCn1c(N2CCN(C(=O)OC(C)(C)C)C[C@H]2C(=O)O)cc(=O)n2cc(-c3ccc(Cl)cc3)nc12 [Compound 641]
10 to 100	CCCCCn1c(N2CCC[C@H]2C(=O)N(C)CC(=O)OC)cc(=O)n2cc(-c3ccc(Cl)cc3)nc12 [Compound 683]
< 10	CCCCCn1c(N2CCC[C@H]2C(=O)N[C@@H](CC2CCCCC2)C(=O)O)cc(=O)n2cc(-c3ccc(Cl)cc3)nc12 [Compound 734]
10 to 100	CCCCCn1c(N2CCC[C@H]2C(=O)N[C@H](C)C(=O)OC)cc(=O)n2cc(-c3ccc(Cl)cc3)nc12 [Compound 692]
< 10	CCCCCn1c(N2CCC[C@H]2C(=O)N[C@@H](Cc2ccc3ccccc3c2)C(=O)O)cc(=O)n2cc(-c3ccc(Cl)cc3)nc12 [Compound 726]
100 to 1000	CCCCCn1c(N2CCNC[C@@H]2C(=O)NCCC(=O)O)cc(=O)n2cc(-c3ccc(Cl)cc3)nc12 [Compound 663]
100 to 1000	CCCCCn1c(N2C[C@H](F)C[C@H]2C(=O)NCCC(=O)OCC)cc(=O)n2cc(-c3ccc(Cl)cc3)nc12 [Compound 591]
100 to 1000	CCCCCn1c(N2CCC[C@H]2CO)cc(=O)n2cc(-c3ccc(Cl)cc3)nc12 [Compound 304]
> 1000	CCCCCn1c(N2CCC[C@H]2C(=O)NCCN2CCCC2)cc(=O)n2cc(-c3ccc(Cl)cc3)nc12 [Compound 647]
100 to 1000	CCCCCn1c(N2CCC[C@H]2C(=O)NCCN2CCOCC2)cc(=O)n2cc(-c3ccc(Cl)cc3)nc12 [Compound 644]
10 to 100	CCCCCn1c(-c2cnn(CCN3CCOCC3)c2)cc(=O)n2cc(-c3ccc(Cl)cc3)nc12 [Compound 425]
10 to 100	CCCCCn1c(N2CCC[C@H]2C(=O)NCCCN2CCCC2=O)cc(=O)n2cc(-c3ccc(Cl)cc3)nc12 [Compound 642]
10 to 100	CCCCCn1c(N2CCC[C@H]2C(=O)NCCC(=O)N2CCOCC2)cc(=O)n2cc(-c3ccc(Cl)cc3)nc12 [Compound 343]
10 to 100	CCCCCn1c(N2CCN(C(C)=O)CC2)cc(=O)n2cc(-c3ccc(Cl)cc3)nc12 [Compound 242]
10 to 100	CCCCCn1c(N2CCC[C@@H](C(=O)NCC(=O)O)C2)cc(=O)n2cc(-c3ccc(Cl)cc3)nc12 [Compound 636]

same assay, conditions: Assay Method C, human autotaxin, 18:0 Lyso PC substrate; read-out: Inhibitory Activity

IC50 [nM]	SMILES
100 to 1000	Cn1c(N2CCC[C@H]2C(=O)NC(C)(C)C(=O)O)cc(=O)n2cc(-c3ccc(Cl)cc3)nc12 [Compound 780]
100 to 1000	CN(CCC#N)C(=O)Cc1cn(CCCC(F)(F)F)c2nc(-c3ccc(Cl)cc3)cn2c1=O [Compound 831]
100 to 1000	CCCCCn1c(N2CCCC[C@H]2C)cc(=O)n2cc(-c3ccc(Cl)cc3)nc12 [Compound 814]
10 to 100	O=C(O)c1cccc(Cc2cn(CCCC(F)(F)F)c3nc(-c4ccc(Cl)cc4)cn3c2=O)c1 [Compound 826]
> 1000	CCCCC(C(C)=O)n1cc(Cc2cccc(C(=O)O)c2)c(=O)n2cc(-c3ccc(Cl)cc3)nc12 (stereo not shown) [Compound 825]
